The structures appear in SMILES notation. Counter-ions that a name gives are not always drawn.

The conditions of this data set: batch B (formoterol 7544MO) versus batch A (formoterol 7544MA); 160/4.5 μg product; same inhaler, budesonide and lactose. The method, then: A pharmacokinetic (PK) clinical study was conducted. The PK study assessed a number of key formulation parameters, metered dose (device dose cup volume), formulation blend strength, drug substance particle size and lactose particle size, using a stepwise approach. The PK study was carried out on the middle strength product (160/4.5 μg). […] For both batch A and batch B, the inhaler, the budesonide and the lactose were the same.

As for `COc1ccc(CC(C)NCC(O)c2ccc(O)c(NC=O)c2)cc1` (stereo not shown) [7544MO, formoterol fumarate dihydrate], the “lowering of formoterol Cmax” value was “more than 20%”.
